The results in this text go back to US20110224151A1, “Polymeric Micelle Composition for Treatment of Resistant Cancer and Preparation Method of the Same” (SAMYANG CORPORATION, priority 2008, published 2011).

For this experiment, the system named is DLD-1 colon cancer cells. Kind of experiment: Inhibition of P-glycoprotein: paclitaxel cytotoxicity with and without cyclosporin. Type of experiment: cell-based, human. Particulars: for IC50: Homo sapiens.

SMILES strings stand for the structures. ≈ marks a conversion by molar mass, not a printed value.

A word on the IC50: it is the concentration that gives 50% inhibition.

In the case of `CC(=O)O[C@H]1C(=O)[C@@]2(C)[C@H]([C@H](OC(=O)c3ccccc3)[C@]3(O)C[C@H](OC(=O)[C@H](O)[C@@H](NC(=O)c4ccccc4)c4ccccc4)C(C)=C1C3(C)C)[C@]1(OC(C)=O)CO[C@@H]1C[C@@H]2O` [paclitaxel], the “decrease of IC50 with cyclosporin as compared to paclitaxel alone” value (1.88 μg/mL cyclosporin, DLD-1 cells) is on record as 15 times. For the same molecule, the concentration for half-maximal inhibition (IC50) came to 0.011 µg/mL (DLD-1, DLD-1 cells treated with 1.88 μg/mL cyclosporin) and 0.16 µg/mL (≈ 0.187 µM) (DLD-1, paclitaxel administered alone, DLD-1 cells).
